From article doi:10.1101/2025.06.13.659494v2, “A cell-based degrader assessment platform facilitates discovery of functional NUDT5 PROTACs” (biorxiv, 2026)

Biological target: T1, NUDT5 (purified) (Homo sapiens, UniProt Q9UKK9)
T1 construct: homodimer
Experiment: enzyme-coupled malachite green assay
Format: biochemical
Conditions: […] ADP-ribose, pH […] Mg acetate, […] °C

## COc1cc(-c2nnc(Cn3c(N4CCNCC4)nc4c3c(=O)n(C)c(=O)n4C)o2)ccc1C [TH10184]
  IC50: TH10184 showed comparable biochemical inhibition and thermal shift to TH5427
